Experimental data reported in patent US5455248A, “Substituted 6,11-ethano-6,11-dihydrobenzo[b] quinolizinium salts, and compositions and method of use thereof” (Sterling Winthrop Inc., priority 1993, dated 1995).

Experiments:
[1] = biological target: PCP recognition sites (PCP receptor), rat whole brain membranes; test: [^3 H]TCP Radioreceptor Assay (internal screen); format: binding, Male Sprague-Dawley rats; details: for Ki / [^3 H]TCP (internal screen) Percent (%) inhibition @10 μM: [^3 H]TCP approx. 1 nM, room temperature 25 min; for Ki: mean of at least two separate determinations
Description: [^3 H]TCP binding to PCP recognition sites was performed as described by Vignon et al. Brain Research 1983, 280, 194-197. Male Sprague-Dawley rats were sacrificed by decapitation, and whole brains were homogenized in 10 volumes (wt/vol) of cold Tris-HCl buffer (50 mM, pH 7.7) using a Brinkmann Polytron (setting 6, 30 sec). The homogenate was centrifuged at 40,000×g for 10 min at 4° C. The supernatant was decanted, and the homogenization and centrifugation steps were repeated twice as described above. Following this, the pellet was resuspended in Tris-HCl (5 mM, pH 7.7) at a tissue concentration of 0.5-0.75 g/ml, and one ml aliquots were frozen at -70° C. until use. The binding characteristics for PCP recognition sites were not altered by the freezing of membrane suspensions.
On the day of the assay, membrane aliquots were thawed, resuspended in fresh 5 mM Tris-HCl buffer at a tissue concentration of 1 mg/ml, and stored on ice until use. Each assay tube contained 100 μl of [^3 H]TCP at a final concentration of approximately 1 nM, 100 μl of various concentrations of the compounds of interest, 500 μl of the tissue suspension and 300 μl of buffer to a final assay volume of 1 ml and a final protein concentration of 0.5 mg/tube. Non-specific binding was defined by addition of […]. All tubes were incubated at room temperature for 25 min before termination of the reaction by rapid filtration over Whatman GF/B glass fiber filters that had been presoaked in a solution of 0.5% polyethylenimine for at least 1 hr prior to use. Filters were washed with three 4 ml volumes of cold Tris buffer. Following addition of scintillation cocktail, the amount of bound radioactivity was determined by liquid scintillation spectrometry using a Beckman LS 5000TA liquid scintillation counter with an efficiency for tritium of approximately 55%. Inhibition constants (Ki values) were calculated using the EBDA/LIGAND program (McPherson, J. Pharmacol. Meth. 1985, 14, 213-228), purchased from Elsevier/Biosoft, Inc. Results are reported as Ki values which are expressed as the mean of at least two separate determinations, or as a percent (%) inhibition of binding at 10 μM.

[2] = system: NMDA-induced neurotoxicity in cultured cortical neurons; test: Antagonism of NMDA-induced Neurotoxicity in Cultured Neurons; format: cell-based, Swiss-Webster mice; details: 500 μM NMDA for 30 minutes, LDH activity after 24 hours
Description: Pregnant, Swiss-Webster mice were obtained from Taconic Farms (Germantown, N.Y.) and sacrificed 16 days post conception. Fetuses were removed and placed in a sterile dish containing Hank's balanced salt solution (HBSS), pH 7.4. Brain cortices were dissected, meninges were removed, the tissue was minced and placed into a solution of HBSS containing 0.25% (w/v) trypsin at 37° C. for 15 minutes. Tissue was then triturated with a sterile pasteur pipet, diluted with minimal essential media (Gibco 330-1430), pH 7.4, supplemented with 10% horse serum, 10% fetal calf serum, 2 mM 1-glutamine, 21 mM d-glucose, 2.2 g/L sodium bicarbonate, 1000 U/ml penicillin, and 1,000 μg/ml streptomycin. Cells were plated onto Falcon primaria 96 well plates at a final density of 50,000 cells/well and incubated at 37° C. in the presence of 5% (v/v) carbon dioxide. After 5 days, plating media was replaced with maintenance media containing minimal essential media (Gibco 330-1430), pH 7.4, supplemented with 10% horse serum, […], 21 mM d-glucose, 2.2 g/1 sodium bicarbonate,1,000 U/ml penicillin, 1,000 μg/ml streptomycin, and 10 μM cytosine arabinoside. On days 7 and 10, media was replaced with maintenance media as above lacking the cytosine arabinoside. Experiments were conducted on day 13.
Day 13 cultured cortical neurons were washed twice with minimal essential media, pH 7.4 and then exposed for 30 minutes to 500 μM N-methyl-D-aspartic acid (NMDA) with or without varying concentrations of test agents. Dizocilpine (MK-801) at a final concentration of 10 μM MK-801 was routinely included as a positive control. MK-801 and test agents were prepared in minimal essential media supplemented with 21 mM d-glucose and 2.2 g/L sodium bicarbonate (MEM). After 30 minutes, media was replaced with MEM alone. Exposure of neurons to test agents was limited to the NMDA treatment period. Twenty-four hours after removal of NMDA, an aliquot of media from each well was removed for assessment of cell injury by determining lactate dehydrogenase (LDH) activity by the method of Wroblewski and LaDue Proc. Soc. […]

[3] = system: PCP recognition sites (PCP receptor), whole rat forebrain membranes; test: [^3 H]TCP Radioreceptor Assay (external screen); format: binding; details: 25° C. for 60 minutes
Description: Representative compounds of the invention were also tested in an external [^3 H]TCP radioreceptor assay using the following protocol:
A procedure similar to that described above for the [^3 H]TCP radioreceptor assay (internal screen) was utilized except that the whole rat forebrain membranes were incubated at 25° C. for 60 minutes rather than at room temperature for 25 minutes, before termination of the reaction. The results are reported as a percent (%) inhibition of binding at 10 μM.

Compound	Ki [1] [nM]	other results
12-isopropylidene-13,13-dimethyl-6,11-ethano-6,11-dihydrobenzo[b]quinolizinium perchlorate (Formula I: R^1 =H; R^2 =R^3 =CH3 ; R^4 and R^5 together =isopropylidene; X^- =ClO4^-) and 12,12-dimethyl-13-isopropylidene-6,11-ethano-6,11-dihydrobenzo[b]quinolizinium perchlorate [Example 16]	265	–
C=C(C)C1(C)CC2c3ccccc3C1c1cccc[n+]12 (single isomer, unassigned) [Example 2, 6,11-ethano-12-isopropenyl-12-methyl-6,11-dihydrobenzo[b]quinolizinium bromide]	208	IC50 ([2]; Mus musculus, Cortical neurone): 7300 nM
C=C(C)C1(COC)CC2c3ccccc3C1c1cccc[n+]12.[O-][Cl+3]([O-])([O-])[O-] (single isomer, unassigned) [Example 4, 6,11-ethano-12-isopropenyl-12-methoxymethyl-6,11-dihydrobenzo[b]quinolizinium perchlorate]	313	–
CC(C)(C)C1C2c3ccccc3C(C1C(C)(C)C)[n+]1ccccc12.F[P-](F)(F)(F)(F)F (single isomer, unassigned) [Example 6, 6,11-ethano-12-tert-butyl13-tert-butyl-6,11-dihydrobenzo[b]quinolizinium hexafluorophosphate]	–	[^3 H]TCP (internal screen) Percent (%) inhibition @10 μM [1]: 44%
CC(C)(C)C1C2c3ccccc3C(C1C(C)(C)C)[n+]1ccccc12 (single isomer, unassigned) [Example 7, 6,11-ethano-12-tert-butyl-13-tert-butyl-6,11-dihydrobenzo[b]quinolizinium hexafluorophosphate]	5090	–
C=CC1CC2c3ccccc3C1c1cccc[n+]12 (single isomer, unassigned) [Example 13(a), 6,11-ethano-12-ethylene-6,11-dihydrobenzo[b]quinolizinium bromide]	–	[^3 H]TCP (internal screen) Percent (%) inhibition @10 μM [1]: 49%
c1ccc2c(c1)C1CC3(CCC3)C2c2cccc[n+]21 (stereo not shown) [10(b), 6,11-ethano-12,12-(1'-spirocyclobutane)-6,11-dihydrobenzo[b]-quinoliziniumchloride]	3110	–
OCC1(CO)CC2c3ccccc3C1c1cccc[n+]12 (stereo not shown) [11(b), 6,11-ethano-12,12-dihydroxymethyl-6,11-dihydrobenzo[b]quinolizinium chloride]	1950	–
c1ccc2c(c1)C1CC3(C4CC5CC(C4)CC3C5)C2c2cccc[n+]21 (stereo not shown) [15(b), 6,11-ethano-12,12-(2'-spiro-adamantane)-6,11-dihydrobenzo[b]quinolizinium chloride]	5280	–
CCOCC1(COCC)CC2c3ccccc3C1c1cccc[n+]12 (stereo not shown) [17(b), 12,12-diethoxymethyl-6,11-ethano-6,11-dihydrobenzo[b]quinolizinium chloride]	353	–
C#CC1(C#C)CC2c3ccccc3C1c1cccc[n+]12 (stereo not shown) [18(b), 12,12-diethynyl-6,11-ethano-6,11-dihydrobenzo[b]quinolizinium hexafluorophosphate]	883	–
CC1(C)C2c3ccccc3C([n+]3ccccc32)C1(C)C.[O-][Cl+3]([O-])([O-])[O-] (stereo not shown) [Example 1, 6,11-ethano-12, 12, 13,13-tetramethyl-6,11-dihydrobenzo[b]quinolizinium perchlorate]	21.2	–
C=C(C)C1(C)CC2c3ccccc3C1c1cccc[n+]12 (stereo not shown) [Example 3, 6,11-ethano-12-isopropenyl-12-methyl-6,11-dihydrobenzo[b]quinolizinium bromide]	191	IC50 [2]: 5880 nM
C=C(C)C1(C)CC2c3ccccc3C1c1cccc[n+]12 (stereo not shown) [Example 5, 6,11-ethano-12-isopropenyl-12-methyl-6,11dihydrobenzo[b]quinolizinium chloride]	65.2	IC50 [2]: 2810 nM
[O-][Cl+3]([O-])([O-])[O-].c1ccc2c(c1)C1CC(C3CC3)(C3CC3)C2c2cccc[n+]21 (stereo not shown) [Example 8, 6,11-ethano-12,12-dicyclopropyl-6,11-dihydrobenzo[b]-quinolizinium perchlorate]	88.1	–
c1ccc2c(c1)C1CC(C3CC3)(C3CC3)C2c2cccc[n+]21 (stereo not shown) [Example 9, 6.11-ethano-12,12-dicyclopropyl-6,11-dihydrobenzo[b]quinolizinium chloride]	103	–
C=C(C)C1(C)CC2(C)c3ccccc3C1c1cccc[n+]12.[O-][Cl+3]([O-])([O-])[O-] (stereo not shown) [Example 12, 6,11-ethano-6-methyl-12-isopropenyl-12-methyl-6,11-dihydrobenzo[b]quinolizinium perchlorate]	69	–
CC(C)=CC1C2c3ccccc3C([n+]3ccccc32)C1(C)C (stereo not shown) [Example 14, 6,11-ethano-12-(2,2-dimethyl)ethylene-13,13-dimethyl-6,11-dihydrobenzo[b]quinolizinium hexafluorophosphate]	3540	–
CC(C)C1(C(C)C)CC2c3ccccc3C1c1cccc[n+]12 (stereo not shown) [Example 19, 12,12-diisopropyl-6,11-dihydrobenzo[b]quinolizium hexafluorophosphate]	6010	–
C=C(C)C1(C)CC2c3ccccc3C1c1cccc[n+]12.[O-][Cl+3]([O-])([O-])[O-] (stereo not shown) [Example 20, 6,11-ethano-12-isopropenyl-12-methyl-6,11-dihydrobenzo[b]quinolizinium perchlorate]	45.7	[^3 H]TCP (external screen) Percent inhibition (%) @10 μM [3]: 94%; binding to the PCP receptor (in words) [1]: found to bind to the PCP receptor
